Converted amounts (≈) assume the structure as drawn.
How the values were obtained:
[1] = test system: human bladder cancer cell T-24; conditions: T-24, MTT
Excerpt: (§1) The purpose of the assay is to evaluate the in vitro cell proliferation inhibition or cytotoxic activity of a tested sample.
(§2) Human breast cancer cells MCF-7 and MDA-MB-231, human hepatoma cells HepG2, human non-small cell lung cancer cells A549, human large cell lung cancer cells H460 and H1299, human renal clear cell adenocarcinoma cell 786-0, human renal cell adenocarcinoma cell 769-P, human glioma cell U251, human glioblastoma cell A172, human tissue lymphoma cell U937, human cervical cancer cell HeLa, human prostate cancer cell PC3, human pancreatic cancer cell PANC-1, human esophageal cancer cell TE-1, human gastric adenocarcinoma cell SGC7901, human colon cancer cell HT-29, human promyelocytic leukemia cell HL-60, human thyroid cancer cell TPC-1, and human bladder cancer cell T-24.
(§3) The inhibition rate of the medicament on tumor cell growth is calculated according to the following formula:
(§4) Tumor cell growth inhibition rate (%)=[A492 (negative control)−A492 (dosing group)]/A492 (negative control)×100%
(§5) And the half-inhibitory concentration (IC50) of the sample is determined therefrom.

[2] = test system: human thyroid cancer cell TPC-1; conditions: TPC-1, MTT
Excerpt: as §1, §2, §3, §4, §5

[3] = test system: transplanted tumor of human hepatoma cell HepG-2; test: HepG-2 transplanted tumor in nude mice; conditions: for Tumor Volume (mm3) (d 1): d1
[4] = test system: transplanted tumor of human non-small cell lung cancer cell A549; test: A549 transplanted tumor in nude mice; conditions: for Tumor Volume (mm3) (d 1): d1
Outline: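 Nude mice inoculated s.c. at right armpit with A549 cells in matrigel (0.2 ml at 1×10^7/ml); at tumor ≥100 mm^3, randomized (n=6/group) and dosed intragastrically at 25, 50 or 100 mg/kg daily for 30 days. Tumor diameters measured every 3 days (V=a×b^2/2, RTV, T/C%); tumors weighed at sacrifice for inhibition rate versus model group.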

[5] = Thymus index and spleen index of H22 liver cancer tumor-bearing mice
[6] = HepG-2, high dose (100 mg/kg in method) i.g. 30 days
[7] = HepG-2, low dose (25 mg/kg in method) i.g. 30 days
[8] = HepG-2, medium dose (50 mg/kg in method) i.g. 30 days
[9] = A549, high dose (100 mg/kg in method) i.g. 30 days
[10] = A549, low dose (25 mg/kg in method) i.g. 30 days
[11] = A549, medium dose (50 mg/kg in method) i.g. 30 days

With COC1C(OC(C)=O)CC(=O)OC(C)CC=CC=CC(OC2CCC(N(C)C)C(C)O2)C(C)CC(CC=O)C1OC1OC(C)C(OC2CC(C)(O)C(OC(=O)CC(C)C)C(C)O2)C(N(C)C)C1O (stereo not drawn) [Isovaleryl spiramycin II, isovaleryl spiramycin II] as the compound, how does the IC50 [1] read?
Its IC50 is 39.85 ± 3.26 µg/mL (≈ 41.1 µM).

What about the IC50 [2] of the same compound?
Its IC50 is 45.37 ± 2.90 µg/mL (≈ 46.8 µM).

What about the “Relative Tumor Proliferation Rate (T/C)” value [3, 6] of the same compound?
The value was 39.31%.

And the “tumor growth inhibition rate” value [3, 6]?
Its value is 61.56%.

And the “Relative Tumor Proliferation Rate (T/C)” value [3, 7]?
Its value is 81.03%.

And the “tumor growth inhibition rate” value [3, 7]?
Its value is 21.07%.

And the “tumor volume and relative tumor volume compared with the model group” value ([3]; HepG-2, low, medium and high doses, P<0.05)?
Its value is “significantly lower”.

What about the “Relative Tumor Proliferation Rate (T/C)” value [3, 8] of the same compound?
The value was 57.02%.

And the “tumor growth inhibition rate” value [3, 8]?
The value was 31.43%.

What about the “Inhibition Rate (%)” value ([3]; HepG-2 nude mice, 25 mg/kg) of the same compound?
Its value is 21.07%.

What about the “Relative Tumor Proliferation Rate (T/C)” value ([3]; HepG-2 nude mice, 25 mg/kg) of the same compound?
Its value is 81.03%.

And the “Relative Tumor Volume (RTV)” value ([3]; HepG-2 nude mice, 25 mg/kg)?
The value was 13.57 ± 1.64.

And the “Tumor Weight” value ([3]; HepG-2 nude mice, 25 mg/kg)?
The value was 1.92 ± 0.32 g.

And the “Tumor Volume (mm3) (d 1)” value ([3]; HepG-2 nude mice, 25 mg/kg)?
The value was 122.82 ± 4.10 mm3.

What about the “Tumor Volume (mm3) (d30)” value ([3]; HepG-2 nude mice, 25 mg/kg) of the same compound?
The value was 1666.11 ± 202.07 mm3.

And the “Inhibition Rate (%)” value ([3]; HepG-2 nude mice, 50 mg/kg)?
Its value is 31.43%.

What about the “Relative Tumor Proliferation Rate (T/C)” value ([3]; HepG-2 nude mice, 50 mg/kg) of the same compound?
The value was 57.02%.

What about the “Relative Tumor Volume (RTV)” value ([3]; HepG-2 nude mice, 50 mg/kg) of the same compound?
The value was 9.55 ± 2.84.

And the “Tumor Weight” value ([3]; HepG-2 nude mice, 50 mg/kg)?
Its value is 1.67 ± 0.32 g.

What about the “Tumor Volume (mm3) (d 1)” value ([3]; HepG-2 nude mice, 50 mg/kg) of the same compound?
The value was 118.60 ± 4.30 mm3.

What about the “Tumor Volume (mm3) (d30)” value ([3]; HepG-2 nude mice, 50 mg/kg) of the same compound?
The value was 1127.90 ± 319.12 mm3.

And the “Inhibition Rate (%)” value ([3]; HepG-2 nude mice, 100 mg/kg)?
The value was 61.56%.

And the “Relative Tumor Proliferation Rate (T/C)” value ([3]; HepG-2 nude mice, 100 mg/kg)?
The value was 39.31%.

What about the “Relative Tumor Volume (RTV)” value ([3]; HepG-2 nude mice, 100 mg/kg) of the same compound?
Its value is 6.58 ± 2.48.

And the “Tumor Weight” value ([3]; HepG-2 nude mice, 100 mg/kg)?
Its value is 0.93 ± 0.41 g.

What about the “Tumor Volume (mm3) (d 1)” value ([3]; HepG-2 nude mice, 100 mg/kg) of the same compound?
Its value is 118.70 ± 7.20 mm3.

And the “Tumor Volume (mm3) (d30)” value ([3]; HepG-2 nude mice, 100 mg/kg)?
Its value is 783.73 ± 312.41 mm3.

What about the “mouse weight compared with the model group” value ([3]; mouse, in vivo) of the same compound?
The value was “no significant changes”.

What about the “Body Weight (g) (d1)” value ([3]; mouse, in vivo, 25 mg/kg) of the same compound?
The value was 21.98 ± 1.74 g.

What about the “Body Weight (g) (d30)” value ([3]; mouse, in vivo, 25 mg/kg) of the same compound?
Its value is 23.35 ± 1.83 g.

What about the “Body Weight (g) (d1)” value ([3]; mouse, in vivo, 50 mg/kg) of the same compound?
The value was 20.75 ± 1.86 g.

And the “Body Weight (g) (d30)” value ([3]; mouse, in vivo, 50 mg/kg)?
Its value is 22.22 ± 1.62 g.

What about the “Body Weight (g) (d1)” value ([3]; mouse, in vivo, 100 mg/kg) of the same compound?
Its value is 21.48 ± 1.98 g.

What about the “Body Weight (g) (d30)” value ([3]; mouse, in vivo, 100 mg/kg) of the same compound?
The value was 22.45 ± 1.28 g.

And the “Relative Tumor Proliferation Rate (T/C)” value [4, 9]?
The value was 39.42%.

What about the “tumor growth inhibition rate” value [4, 9] of the same compound?
The value was 60.19%.

And the “Relative Tumor Proliferation Rate (T/C)” value [4, 10]?
The value was 83.41%.

What about the “tumor growth inhibition rate” value [4, 10] of the same compound?
The value was 20.73%.

And the “tumor volume and relative tumor volume compared with the model group” value ([4]; A549, low, medium and high doses, P<0.05)?
The value was “significantly lower”.

What about the “Relative Tumor Proliferation Rate (T/C)” value [4, 11] of the same compound?
The value was 58.75%.

And the “tumor growth inhibition rate” value [4, 11]?
The value was 31.87%.

What about the “Inhibition Rate (%)” value ([4]; A549 nude mice, 25 mg/kg) of the same compound?
The value was 20.73%.

What about the “Relative Tumor Proliferation Rate (T/C)” value ([4]; A549 nude mice, 25 mg/kg) of the same compound?
Its value is 83.41%.

And the “Relative Tumor Volume (RTV)” value ([4]; A549 nude mice, 25 mg/kg)?
The value was 13.54 ± 1.07.

And the “Tumor Weight” value ([4]; A549 nude mice, 25 mg/kg)?
The value was 1.90 ± 0.31 g.

What about the “Tumor Volume (mm3) (d 1)” value ([4]; A549 nude mice, 25 mg/kg) of the same compound?
Its value is 119.67 ± 7.25 mm3.

And the “Tumor Volume (mm3) (d30)” value ([4]; A549 nude mice, 25 mg/kg)?
Its value is 1614.91 ± 65.26 mm3.

What about the “Inhibition Rate (%)” value ([4]; A549 nude mice, 50 mg/kg) of the same compound?
The value was 31.87%.

What about the “Relative Tumor Proliferation Rate (T/C)” value ([4]; A549 nude mice, 50 mg/kg) of the same compound?
Its value is 58.75%.

And the “Relative Tumor Volume (RTV)” value ([4]; A549 nude mice, 50 mg/kg)?
Its value is 9.54 ± 2.62.

And the “Tumor Weight” value ([4]; A549 nude mice, 50 mg/kg)?
Its value is 1.63 ± 0.32 g.

What about the “Tumor Volume (mm3) (d 1)” value ([4]; A549 nude mice, 50 mg/kg) of the same compound?
The value was 117.96 ± 4.88 mm3.

What about the “Tumor Volume (mm3) (d30)” value ([4]; A549 nude mice, 50 mg/kg) of the same compound?
Its value is 1129.10 ± 326.54 mm3.

And the “Inhibition Rate (%)” value ([4]; A549 nude mice, 100 mg/kg)?
Its value is 60.19%.

What about the “Relative Tumor Proliferation Rate (T/C)” value ([4]; A549 nude mice, 100 mg/kg) of the same compound?
Its value is 47.94%.

And the “Relative Tumor Volume (RTV)” value ([4]; A549 nude mice, 100 mg/kg)?
Its value is 7.78 ± 2.03.

And the “Tumor Weight” value ([4]; A549 nude mice, 100 mg/kg)?
The value was 0.95 ± 0.42 g.

What about the “Tumor Volume (mm3) (d 1)” value ([4]; A549 nude mice, 100 mg/kg) of the same compound?
The value was 116.96 ± 6.56 mm3.

What about the “Tumor Volume (mm3) (d30)” value ([4]; A549 nude mice, 100 mg/kg) of the same compound?
Its value is 917.10 ± 270.86 mm3.

And the “mouse weight compared with the model group” value ([4]; mouse, in vivo)?
Its value is “no significant changes”.

And the “Body Weight (g) (d1)” value ([4]; mouse, in vivo, 25 mg/kg)?
The value was 20.91 ± 1.07 g.

What about the “Body Weight (g) (d30)” value ([4]; mouse, in vivo, 25 mg/kg) of the same compound?
Its value is 21.32 ± 1.88 g.

And the “Body Weight (g) (d1)” value ([4]; mouse, in vivo, 50 mg/kg)?
The value was 20.03 ± 1.88 g.

And the “Body Weight (g) (d30)” value ([4]; mouse, in vivo, 50 mg/kg)?
Its value is 12.92 ± 1.68 g.

What about the “Body Weight (g) (d1)” value ([4]; mouse, in vivo, 100 mg/kg) of the same compound?
The value was 21.71 ± 1.94 g.

And the “Body Weight (g) (d30)” value ([4]; mouse, in vivo, 100 mg/kg)?
The value was 12.42 ± 1.37 g.

And the “Spleen Index (%)” value ([5]; dose 13 mg/kg)?
Its value is 0.59 ± 0.24%.

What about the “Thymus Index (%)” value ([5]; dose 13 mg/kg) of the same compound?
Its value is 0.12 ± 0.05%.

What about the “Spleen Index (%)” value ([5]; dose 26 mg/kg) of the same compound?
Its value is 0.68 ± 0.24%.

And the “Thymus Index (%)” value ([5]; dose 26 mg/kg)?
Its value is 0.16 ± 0.03%.

What about the “Spleen Index (%)” value ([5]; dose 52 mg/kg) of the same compound?
Its value is 0.64 ± 0.17%.

And the “Thymus Index (%)” value ([5]; dose 52 mg/kg)?
Its value is 0.17 ± 0.10%.
